Molecular target: T1, MLLT1 (Homo sapiens, UniProt Q03111)
T1 construct: endogenous in cells; host or cells: MV4-11 (ATCC CRL-9591)
T1 sequence (Q03111 1-559): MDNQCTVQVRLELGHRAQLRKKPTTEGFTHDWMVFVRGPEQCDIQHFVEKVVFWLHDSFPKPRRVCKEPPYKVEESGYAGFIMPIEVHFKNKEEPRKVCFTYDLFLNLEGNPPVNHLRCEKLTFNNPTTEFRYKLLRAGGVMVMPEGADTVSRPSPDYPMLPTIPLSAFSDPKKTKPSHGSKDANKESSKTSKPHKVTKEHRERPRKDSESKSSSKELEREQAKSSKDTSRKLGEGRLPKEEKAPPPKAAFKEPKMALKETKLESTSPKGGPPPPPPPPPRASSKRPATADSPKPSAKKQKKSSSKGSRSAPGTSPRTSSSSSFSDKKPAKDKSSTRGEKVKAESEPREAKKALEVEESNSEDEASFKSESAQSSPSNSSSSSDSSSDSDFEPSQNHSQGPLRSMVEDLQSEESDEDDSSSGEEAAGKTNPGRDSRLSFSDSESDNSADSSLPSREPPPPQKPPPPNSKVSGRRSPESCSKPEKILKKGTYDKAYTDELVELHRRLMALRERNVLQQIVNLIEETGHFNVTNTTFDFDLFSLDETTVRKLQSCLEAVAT
Experiment: MLLT1 Degradation Assay (JESS automated chemiluminescent detection, MV4-11 cells)
Type: cell-based
Conditions: 24h, with respect to DMSO control; for MLLT1 % Degradation @ 0.01 µM: 0.01 µM (10 nM) test compound; for MLLT1 % Degradation @ 0.1 µM: 0.1 µM (100 nM) test compound; for MLLT 1 % Degradation @ 1 µM: 1 µM (1000 nM) test compound
Method in brief: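 MV4-11 cells were treated for 24 h at 37 °C, 5% CO2 with compound at 1000, 100 and 10 nM (0.1% DMSO). MLLT1 was quantified by automated capillary chemiluminescent immunodetection (JESS). Band peak areas were expressed as % degradation relative to DMSO control.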

Row | MLLT1 % Degradation @ 0.01 µM | MLLT1 % Degradation @ 0.1 µM | SMILES | MLLT 1 % Degradation @ 1 µM
1 | D (Category D: D < 25% degradation) | D (Category D: D < 25% degradation) | CN1CCC[C@@H]1c1cc2cnc(NC(=O)c3ccc(CCC#Cc4cccc5c4CN(C4CCC(=O)NC4=O)C5=O)cn3)cc2[nH]1 (stereo partly drawn) [Example 49, 5-(4-(2-(2,6-dioxopiperidin-3-yl)-1-oxoisoindolin-4-yl)but-3-yn-1-yl)-N-(2-((R)-1-methylpyrrolidin-2-yl)-1H-pyrrolo[3,2-c]pyridin-6-yl)picolinamide] | C (Category C: 25% ≤ C < 50% degradation)
2 | A (Category A: A ≥ 75% degradation) | A (Category A: A ≥ 75% degradation) | CN1CCC[C@@H]1c1cc2cnc(NC(=O)c3ccc(CCCCC#Cc4cccc5c4CN(C4CCC(=O)NC4=O)C5=O)cc3)cc2[nH]1 (stereo partly drawn) [Example 8, 4-(6-(2-(2,6-dioxopiperidin-3-yl)-1-oxoisoindolin-4-yl)hex-5-yn-1-yl)-N-(2-((R)-1-methylpyrrolidin-2-yl)-1H-pyrrolo[3,2-c]pyridin-6-yl)benzamide] | A (Category A: A ≥ 75% degradation)
3 | A (Category A: A ≥ 75% degradation) | A (Category A: A ≥ 75% degradation) | CN1CCC[C@@H]1c1cc2cnc(NC(=O)c3ccc(CCC#Cc4cccc5c4CN(C4CCC(=O)NC4=O)C5=O)cc3F)cc2[nH]1 (stereo partly drawn) [Example 54, 4-(4-(2-(2,6-dioxopiperidin-3-yl)-1-oxoisoindolin-4-yl)but-3-yn-1-yl)-2-fluoro-N-(2-((R)-1-methylpyrrolidin-2-yl)-1H-pyrrolo [3,2-c]pyridin-6-yl) benzamide] | B (Category B: 50% ≤ B < 75% degradation)
4 | A (Category A: A ≥ 75% degradation) | A (Category A: A ≥ 75% degradation) | CN1CCC[C@@H]1c1[nH]c2cc(NC(=O)c3ccc(N4CCN(CC#Cc5cccc6c5CN(C5CCC(=O)NC5=O)C6=O)CC4)nc3)ncc2c1Cl (stereo partly drawn) [Example 72, N-(3-chloro-2-((R)-1-methylpyrrolidin-2-yl)-1H-pyrrolo[3,2-c]pyridin-6-yl)-6-(4-(3-(2-(2,6-dioxopiperidin-3-yl)-1-oxoisoindolin-4-yl)prop-2-yn-1-yl)piperazin-1-yl)nicotinamide] | C (Category C: 25% ≤ C < 50% degradation)
5 | A (Category A: A ≥ 75% degradation) | A (Category A: A ≥ 75% degradation) | CN1CCC[C@@H]1c1[nH]c2cc(NC(=O)CCCCCCC#Cc3cccc4c3CN(C3CCC(=O)NC3=O)C4=O)ncc2c1Cl (stereo partly drawn) [Example 13, N-(3-chloro-2-((R)-1-methylpyrrolidin-2-yl)-1H-pyrrolo [3,2-c]pyridin-6-yl)-9-(2-(2,6-dioxopiperidin-3-yl)-1-oxoisoindolin-4-yl) non-8-ynamide] | A (Category A: A ≥ 75% degradation)

The next lines start with the molecule.

Row | SMILES | MLLT1 % Degradation @ 0.01 µM | MLLT1 % Degradation @ 0.1 µM | MLLT 1 % Degradation @ 1 µM
6 | CN1CCC[C@@H]1c1cc2cnc(NC(=O)c3ccc(OCCC#Cc4cccc5c4CN(C4CCC(=O)NC4=O)C5=O)cc3)cc2[nH]1 (stereo partly drawn) [Example 19, 4-((4-(2-(2,6-dioxopiperidin-3-yl)-1-oxoisoindolin-4-yl)but-3-yn-1-yl)oxy)-N-(2-((R)-1-methylpyrrolidin-2-yl)-1H-pyrrolo[3,2-c]pyridin-6-yl)benzamide] | B (Category B: 50% ≤ B < 75% degradation) | A (Category A: A ≥ 75% degradation) | A (Category A: A ≥ 75% degradation)
7 | CN1CCC[C@@H]1c1cc2cnc(NC(=O)CCCCCCNc3ccc4c(c3)C(=O)N(C3CCC(=O)NC3=O)C4=O)cc2[nH]1 (stereo partly drawn) [Example 27, 7-{[2-(2,6-dioxopiperidin-3-yl)-1,3-dioxoisoindol-5-yl]amino}-N-{2-[(2R)-1-methylpyrrolidin-2-yl]-1H-pyrrolo[3,2-c]pyridin-6-yl}heptanamide] | C (Category C: 25% ≤ C < 50% degradation) | C (Category C: 25% ≤ C < 50% degradation) | B (Category B: 50% ≤ B < 75% degradation)
8 | CN1CCC[C@@H]1c1cc2cnc(NC(=O)CCCC3CCN(c4cccc5c4C(=O)N(C4CCC(=O)NC4=O)C5=O)CC3)cc2[nH]1 (stereo partly drawn) [Example 41, 4-(1-(2-(2,6-dioxopiperidin-3-yl)-1,3-dioxoisoindolin-4-yl)piperidin-4-yl)-N-(2-((R)-1-methylpyrrolidin-2-yl)-1H-pyrrolo[3,2-c]pyridin-6-yl)butanamide] | B (Category B: 50% ≤ B < 75% degradation) | B (Category B: 50% ≤ B < 75% degradation) | A (Category A: A ≥ 75% degradation)
9 | CN1CCC[C@@H]1c1cc2cnc(NC(=O)CCCC3CCCN(c4cccc5c4C(=O)N(C4CCC(=O)NC4=O)C5=O)C3)cc2[nH]1 (stereo partly drawn) [Example 44, 4-(1-(2-(2,6-dioxopiperidin-3-yl)-1,3-dioxoisoindolin-4-yl)piperidin-3-yl)-N-(2-((R)-1-methylpyrrolidin-2-yl)-1H-pyrrolo[3,2-c]pyridin-6-yl)butanamide] |  | C (Category C: 25% ≤ C < 50% degradation) | C (Category C: 25% ≤ C < 50% degradation)
10 | CCN1CCC[C@@H]1c1cc2cnc(NC(=O)c3ccc(CCCCC#Cc4cccc5c4CN(C4CCC(=O)NC4=O)C5=O)nc3)cc2[nH]1 (stereo partly drawn) [Example 74, 6-(6-(2-(2,6-dioxopiperidin-3-yl)-1-oxoisoindolin-4-yl)hex-5-yn-1-yl)-N-(2-((R)-1-ethylpyrrolidin-2-yl)-1H-pyrrolo [3,2-c]pyridin-6-yl) nicotinamide] | B (Category B: 50% ≤ B < 75% degradation) | B (Category B: 50% ≤ B < 75% degradation) | B (Category B: 50% ≤ B < 75% degradation)
11 | CN1CCC[C@@H]1c1cc2cnc(NC(=O)c3ccc(N4CCN(CC#Cc5cccc6c5CN(C5CCC(=O)NC5=O)C6=O)CC4)nc3)cc2[nH]1 (stereo partly drawn) [Example 6, 6-(4-(3-(2-(2,6-dioxopiperidin-3-yl)-1-oxoisoindolin-4-yl)prop-2-yn-1-yl)piperazin-1-yl)-N-(2-((R)-1-methylpyrrolidin-2-yl)-1H-pyrrolo[3,2-c]pyridin-6-yl)nicotinamide] | A (Category A: A ≥ 75% degradation) | A (Category A: A ≥ 75% degradation) | B (Category B: 50% ≤ B < 75% degradation)
12 | CN1CCC[C@@H]1c1cc2cnc(NC(=O)CCCCC3CCN(c4cccc5c4C(=O)N(C4CCC(=O)NC4=O)C5=O)CC3)cc2[nH]1 (stereo partly drawn) [Example 42, 5-(1-(2-(2,6-Dioxopiperidin-3-yl)-1,3-dioxoisoindolin-4-yl)piperidin-4-yl)-N-(2-((R)-1-methylpyrrolidin-2-yl)-1H-pyrrolo[3,2-c]pyridin-6-yl)pentanamide] |  | B (Category B: 50% ≤ B < 75% degradation) | B (Category B: 50% ≤ B < 75% degradation)
13 | CN1CCC[C@@H]1c1cc2cnc(NC(=O)c3ccc(CCCCC#Cc4cccc(N5CCC(=O)NC5=O)n4)cc3)cc2[nH]1 [Example 9, (R)-4-(6-(6-(2,4-dioxotetrahydropyrimidin-1(2H)-yl)pyridin-2-yl)hex-5-yn-1-yl)-N-(2-(1-methylpyrrolidin-2-yl)-1H-pyrrolo[3,2-c]pyridin-6-yl)benzamide] | A (Category A: A ≥ 75% degradation) | A (Category A: A ≥ 75% degradation) | A (Category A: A ≥ 75% degradation)
14 | CN1CCC[C@@H]1c1cc2cnc(NC(=O)c3ccc(C4CCN(c5cccc6c5C(=O)N(C5CCC(=O)NC5=O)C6=O)CC4)cc3)cc2[nH]1 (stereo partly drawn) [Example 15, 4-(1-(2-(2,6-dioxopiperidin-3-yl)-1,3-dioxoisoindolin-4-yl)piperidin-4-yl)-N-(2-((R)-1-methylpyrrolidin-2-yl)-1H-pyrrolo[3,2-c]pyridin-6-yl)benzamide] | B (Category B: 50% ≤ B < 75% degradation) | A (Category A: A ≥ 75% degradation) | B (Category B: 50% ≤ B < 75% degradation)
15 | CN1CCC[C@@H]1c1cc2cnc(NC(=O)c3ccc(CC4CCN(c5cccc6c5C(=O)N(C5CCC(=O)NC5=O)C6=O)CC4)cc3)cc2[nH]1 (stereo partly drawn) [Example 3, 4-((1-(2-(2,6-dioxopiperidin-3-yl)-1,3-dioxoisoindolin-4-yl)piperidin-4-yl)methyl)-N-(2-((R)-1-methylpyrrolidin-2-yl)-1H-pyrrolo[3,2-c]pyridin-6-yl)benzamide] | C (Category C: 25% ≤ C < 50% degradation) | A (Category A: A ≥ 75% degradation) | A (Category A: A ≥ 75% degradation)
